Legend:
[1] = tested on: HCT116 cells; experiment: Metabolomics (LC-MS of soluble metabolites); type: cell-based, human; settings: for change of intracellular PCho pool: 24 h
Procedure: Unlabeled metabolite analyses were conducted as previously reported. HCT116 cells cultured overnight in 6-well plates were treated with vehicle, 1 or 10 μM ICL-CCIC-0019 for 24 h prior to extraction. For flux experiments, HCT116 cells were plated onto 6-well plates and cultured overnight. The cells were then grown in medium containing vehicle or 1 μM ICL-CCIC-0019 for 24 h. The medium was then replaced with that containing ^13C metabolites (5 mM ^13C6-glucose or 0.2 mM ^13C2-acetate) and inhibitor for various indicated time points. Metabolites were extracted with a cold solution (−20°C) composed of methanol, acetonitrile, and water (5:3:2). The insoluble material was immediately pelleted in a cooled (0°C) centrifuge at 16,000 × g for 15 min and the supernatant was collected for subsequent LC-MS analysis. A ZIC-pHILIC column (4.6 mm × 150 mm, guard column 2.1 mm × 20 mm, Merck) was used for LC separation using formic acid, water, and acetonitrile as component of the mobile phase. Metabolites were detected using an Exactive mass spectrometer (ThermoFisher).

[2] = Tissue pharmacokinetics in HCT116 xenograft bearing mice; type: in vivo, BALB/c nude mice; settings: 10 mg/kg i.p.
Procedure: (§1) Plasma pharmacokinetic parameters of ICL-CCIC-0019 were established in female BALB/c mice aged 6–8 weeks (Harlan). Mice were intraperitoneally (i.p.) or perorally (p.o.) administered a single dose of 10 mg/kg and blood collected by cardiac puncture after 5, 15, 30 minutes and 1, 2, 4, 6 and 24 h. For tissue pharmacokinetic studies, HCT116 xenograft bearing mice were administered 10 mg/kg ICL-CCIC-0019 i.p. and blood collected after 5 minutes, 2, 6 and 24 h. Plasma was obtained by centrifugation at 1000 × g for 10 minutes. Samples were snap-frozen and stored at −80°C prior to analysis. Analysis was carried out by Cyprotex Inc. using liquid chromatography–mass spectrometry (LC–MS). For analysis of plasma metabolites, 2-hour samples of tissue pharmacokinetic studies were pooled.

[3] = tested on: panel of 131 human kinases; experiment: Kinase selectivity screen (whole panel); type: biochemical; settings: 10 μM
Procedure: (§2) The substantially less demanding synthesis of ICL-CCIC-0019 compared with MN58B bears additional advantages. […] This consequently diminished intracellular PCho concentration, and importantly, the incorporation of [^3H]-choline into lipids (Figure 1D). […] To assess kinase specificity, ICL-CCIC-0019 was tested against a panel of 131 human kinases (Figure 1E and Supplementary Table S1). […] Inhibition greater than 20% was attained for insulin-like growth factor 1 (IGF-1R, 35 ± 7% inhibition), mitogen-activated protein kinase-activated protein kinase 3 (MAPKAP-K3, 33 ± 6%), extracellular signal regulated kinase 8 (ERK8, 31 ± 4%), ribosomal S6 kinase 1 (RSK1, 22 ± 6%), and v-erb-a erythroblastic leukemia viral oncogene homolog 4 (HER4, 21 ± 7%).

[4] = tested on: A549 cells; experiment: Comparative antiproliferative activity; type: cell-based, human
Procedure: Enzymatic kinase activity, [^3H]choline to [^3H]PCho conversion and growth inhibition assays was conducted as previously described. [^3H]choline incorporation into soluble and lipid fractions was determined by a pulse-chase experiment. HCT116 cells were seeded at a density of 3 × 10^5 cell per well into 12-well plates and incubated overnight. Cells were treated with 1 or 10 μM ICL-CCIC-0019 for 1 h and pulsed in presence of inhibitor with 18.5 kBq/mL [^3H]choline chloride in 500 μL for 1 additional h. Cells were briefly rinsed with RPMI and incubated with fresh, non-radioactive medium for 6 h. Metabolites were extracted as described elsewhere, but additionally the radioactivity of the choline-containing and chloroform (lipid-containing) fractions was measured. Uptake of radiolabeled metabolite-tracers was measured as described elsewhere. Antiproliferative activity was measured after 72 h continuous exposure to inhibitors by sulforhodamine B (SRB) assay as described elsewhere. Apoptosis was determined using Caspase 3/7 Glo assay (Promega) according to the manufacturer's instructions.

[5] = molecular target: recombinant human Δ49N CHKA2 (Homo sapiens, UniProt P35790); settings: cited from earlier work
Chain of recombinant human Δ49N CHKA2 (P35790 50-457 limits assumed, stated change not applied): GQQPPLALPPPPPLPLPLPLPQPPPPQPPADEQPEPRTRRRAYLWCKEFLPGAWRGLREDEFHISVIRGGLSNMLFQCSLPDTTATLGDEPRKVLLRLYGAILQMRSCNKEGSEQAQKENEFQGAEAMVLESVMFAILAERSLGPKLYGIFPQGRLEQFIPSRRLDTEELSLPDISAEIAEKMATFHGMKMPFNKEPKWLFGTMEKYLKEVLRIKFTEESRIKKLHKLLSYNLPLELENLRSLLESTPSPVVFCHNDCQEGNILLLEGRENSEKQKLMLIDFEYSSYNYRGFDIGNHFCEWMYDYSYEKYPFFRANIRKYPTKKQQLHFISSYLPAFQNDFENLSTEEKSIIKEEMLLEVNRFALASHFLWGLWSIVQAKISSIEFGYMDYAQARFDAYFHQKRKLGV

[6] = tested on: non-small lung cancer cell lines; experiment: NCI-60 screen; type: cell-based; settings: Homo sapiens, read-out: median GI50
Excerpt: (§3) The compound was then screened against a larger panel of cancer cell lines of diverse histopathologic origin, the NCI-60 screen. […] Mining of publicly available Cancer Genome Atlas (TCGA) expression data identified CHKA amplification and/or mRNA upregulation in 11% of breast, 5–10% of lung, 8% of ovarian, 7% of colorectal and 5% of prostate cancers. Furthermore, CHKA mRNA expression is higher in multiple tumor types compared to normal tissue (Supplementary Figure S1D). The gene was rarely mutated or deleted (0–2.5% mutation rate and < 1% deletion among all tested cancer types). The consistently high expression in a wide variety of tumor types highlights the relevance of CHKA in malignancy and role as a therapeutic target.

[7] = tested on: Breast cancer cell lines; experiment: NCI-60 screen; type: cell-based; settings: Homo sapiens, read-out: median GI50
Excerpt: as §3

[8] = tested on: HCT116 xenografts; experiment: Antitumor activity in HCT116 xenograft model; type: in vivo, BALB/c nude mice; settings: 5 mg/kg i.p. once a day on days 1–3, 11 day recovery
Procedure: All animal experiments were conducted in accordance with the United Kingdom Home Office Guidance on the Operation of The Animals (Scientific Procedures) Act 1986 Amendment Regulations 2012 and within the published guidelines for the welfare and use of animals in cancer research. Xenografts were established in female BALB/c nude mice aged 6–8 weeks (Harlan) by subcutaneous (s.c.) injection of 100 μL HCT116 cells (5 × 10^6 in PBS) on the back of mice. Tumor dimensions were frequently measured by calliper and volumes calculated by the following equation: volume (mm^3) = (π/6) × a × b × c, where a, b, and c represent 3 orthogonal axes of the tumor. When tumor volumes reached approximately 50–100 mm^3 (ca. 10 days post injection), mice were used for subsequent studies.

[9] = Plasma metabolite analysis by LC-MS; type: in vivo, BALB/c mice; settings: pooled 2-hour plasma samples
Procedure: as §1

[10] = tested on: HCT116 cells; experiment: TMRE mitochondrial membrane potential assay; type: cell-based, human; settings: 10 μM, 24 h
Procedure: HCT116 cells were cultured as above with indicated inhibitors and subject to the tetramethylrhodamine ethyl ester dye method (TMRE) membrane potential assay according to the manufacturers instruction (Abcam ab113852) prior to FACS analysis.

[11] = tested on: AMPK; experiment: Kinase selectivity screen; type: biochemical, rat
Procedure: as §2

Structure (SMILES): CN(C)c1cc[n+](CCCCCCCCCCCC[n+]2ccc(N(C)C)cc2)cc1 [ICL-CCIC-0019]
- change of intracellular PCho pool ([1]; 1 μM): −56%
- change of intracellular PCho pool ([1]; 10 μM): −61%
- decrease in S-adenosylhomocysteine (SAH) ([1]; HCT116 cells): 26%
- increase in SAM ([1]; HCT116 cells): 11%
- time of peak tumor concentration post injection [2]: 2 h
- inhibition in all 131 kinases [3]: ≤ 35%
- number of kinases inhibited more than 20% ([3]; 131 kinases): 5
- antiproliferative activity compared with CK37 [4]: superior to CK37
- antiproliferative activity compared with MN58B [4]: equipotent to MN58B
- mode of CHKA inhibition [5]: competitive with choline, but not ATP
- GI50 [6]: 751 nM
- GI50 [7]: 627 nM
- antitumour activity [8]: potent antitumour activity
- metabolic stability in plasma [9]: metabolically stable
- TMRE-detectable mitochondrial membrane potential [10]: decreased
- % activity remaining ([11]; AMPK, 10 μM): 109%
- direct effect on AMPK activity ([11]; cell-free kinase assays): did not directly alter AMPK activity

Source: PMC5095062, “The novel choline kinase inhibitor ICL-CCIC-0019 reprograms cellular metabolism and inhibits cancer cell growth” (Oncotarget, 2016)
